# Results published in patent publication US11952365B2, “Anti-viral compounds” (Aligos Therapeutics, Inc., priority 2020, dated 2024).
# Like-named read-outs stand apart in the source and are kept apart here.
# Columns and labels:
# 3CLpro = 3CLpro (Severe acute respiratory syndrome coronavirus 2, UniProt P0DTD1); experiment: SARS-CoV-2 3CLpro protease assay (duplex, SAMDI-MS); type: biochemical; design: For the duplex assay, 3CLpro and HRV3C was added; details: 3CLpro, 30 mins preincubation, class symbols; read-out: SARS-Cov-2 IC50
# human cathepsin L = molecular target: T1, human cathepsin L (Homo sapiens, UniProt P07711); experiment: cathepsin L assay; type: biochemical; details: 10 pM human cathepsin L, Z-FR-AMC 2 μM, class symbols
# T1 construct: purchased R&D Systems
# Outline: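 Human cathepsin L at 10 pM was preincubated 30 min with compound, then reaction started with Z-FR-AMC (2 μM final). Fluorescence (355/460 nm) read every 2 min for 30 min; IC50 from four-parameter curve fit.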
# [1] = test system: human beta-coronavirus OC43; experiment: microbe, parasite or virus in culture; type: cell-based; details: OC43 in HeLa cells, 6 days at 33° C., class symbols, read-out: EC50
# HRV3C = HRV3C (Human rhinovirus 14, UniProt P03303); experiment: HRV3C protease assay (duplex, SAMDI-MS); type: biochemical, HRV
# Outline: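 Steps: enzymes (HRV3C plus 3CLpro) and compound preincubated 30 min; two peptide substrates added; 30 min reaction at ambient temperature; formic acid quench; SAMDI capture and reflector-positive TOF analysis. Product quantified against internal standard peptides. IC50 by four-parameter equation.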
# HeLa cells = experiment: Cytotoxicity plates without OC43 virus (cell-titer-glo); type: cell-based, human; details: class symbols
# Outline: (§1)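 HeLa cells seeded overnight, then treated with serially diluted compounds in 2% FBS EMEM, uninfected, in parallel with the OC43 antiviral plates. Incubated 6 days at 33 °C; viability read by CellTiter-Glo luminescence.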
# Vero E6-eGFP cells = details: read-out: VeroE6 + CP (CC50); Vero E6-eGFP cells with CP-100356, absence of virus, MTS; numeric bounds
# [2] = test system: SARS-CoV-2-GHB-03021/2020; experiment: microbe, parasite or virus in culture; type: cell-based; details: read-out: VeroE6 + CP (EC50)
# in vitro [3] = details: human
# in vitro [4] = details: African green monkey, VeroE6 + CP (CC50), Vero E6-eGFP cells with CP-100356, absence of virus, MTS
# [5] = test system: SARS-CoV-2-GHB-03021/2020; experiment: SARS-CoV-2 Infection Model in Huh7 Cells; type: cell-based; details: Severe acute respiratory syndrome coronavirus 2, Huh-7, 96 h, SARS-CoV-2, day 4 p.i., MTS, class symbols
# [6] = Cytotoxicity plates without OC43 virus (cell-titer-glo); type: cell-based, human; details: human; HeLa cells without OC43 virus, class symbols
# Outline: as §1
# [7] = HRV3C, 30 mins preincubation, bound, read-out: HRV IC50
# [8] = HRV3C, 30 mins preincubation, class symbols, read-out: HRV IC50
# [9] = Betacoronavirus 1, OC43, HeLa, 144 h
# [10] = Severe acute respiratory syndrome coronavirus 2, Vero C1008, 96 h
Compound,IC50 (3CLpro),IC50 (human cathepsin L),EC50 [1],IC50 (HRV3C; [7]),CC50 (HeLa cells),CC50 (Vero E6-eGFP cells),IC50 (HRV3C; [8]),EC50 [2],CC50 (in vitro [3]),CC50 (in vitro [4]; numeric bounds),EC50 [5],"EC50 [1, 9]","EC50 [2, 10]",CC50 at 6 days [6],CC50 (in vitro [4]; class symbols),"IC50 (HRV3C; HRV3C, printed bound without unit, read-out: HRV IC50)","IC50 (HRV3C; HRV IC50, HRV3C, 30 mins preincubation, class symbols)"
COc1cccc2[nH]c(C(=O)N3Cc4ccccc4[C@H]3C(=O)N[C@@H](C[C@@H]3CCCNC3=O)C(=O)CO)cc12 [Compound 73_1],0.02 to 0.2 µM,≥ 10 µM,0.1 to 1 µM,> 10 µM,> 10 µM,–,–,–,–,–,–,–,–,–,–,–,–
COc1cccc2[nH]c(C(=O)N3Cc4ccccc4[C@@H]3C(=O)N[C@@H](C[C@@H]3CCCNC3=O)C(=O)CO)cc12 [Compound 73_2],2 to 20 µM,≥ 10 µM,10 to 100 µM,> 10 µM,> 10 µM,–,–,–,–,–,–,–,–,–,–,–,–
N-benzyl-3-[[(2S)-1-(1H-indole-2-carbonyl)pyrrolidin-2-yl]formamido]-2-oxo-4-[(3S)-2-oxopyrrolidin-3-yl]butanamide [Compound 3],20 to 100 µM,–,10 to 100 µM,–,> 10 µM,> 100 µM,2 to 20 µM,> 100 µM,–,–,–,–,–,–,–,–,–
"O=C1NCC[C@H]1C[C@H](NC(=O)[C@@H]1[C@H]2CCC[C@H]2CN1C(=O)c1cc2c(Cl)cc(Cl)c(F)c2[nH]1)C(=O)CO [Compound 160, (1S,3aR,6aS)-2-(4,6-dichloro-7-fluoro-1H-indole-2-carbonyl)-N—((S)-4-hydroxy-3-oxo-1-((S)-2-oxopyrrolidin-3-yl)butan-2-yl)octahydrocyclopenta[c]pyrrole-1-carboxamide]",< 0.02 µM,≥ 10 µM,–,> 10 µM,–,–,–,–,> 10 µM,> 50 µM,< 1 µM,0.1 to 1 µM,< 1 µM,> 10 µM,–,–,–
"COc1cccc2[nH]c(C(=O)N3C[C@@H]4CCC[C@@H]4[C@H]3C(=O)N[C@@H](CC3CC(C)(C)NC3=O)C(=O)COCc3ccccc3)cc12 (relative stereo) [Compound 70A_1, (1S,3aR,6aS)—N-[(2S)-4-(benzyloxy)-1-[(3R*)-5,5-dimethyl-2-oxopyrrolidin-3-yl]-3-oxobutan-2-yl]-2-(4-methoxy-1H-indole-2-carbonyl)-hexahydro-1H-cyclopenta[c]pyrrole-1-carboxamide]",0.02 to 0.2 µM,≥ 10 µM,–,–,–,–,2 to 20 µM,–,> 10 µM,–,1 to 10 µM,< 0.1 µM,1 to 10 µM,> 10 µM,> 10 µM,–,–
O=C(NC1CC1)C(=O)[C@H](C[C@@H]1CCNC1=O)NC(=O)[C@@H]1CC2(CCN1C(=O)c1cc3cc(F)ccc3[nH]1)CC2 [Compound 147],< 0.02 µM,≥ 10 µM,–,–,–,–,2 to 20 µM,–,> 50 µM,> 50 µM,10 to 100 µM,0.1 to 1 µM,10 to 100 µM,> 10 µM,–,–,–
O=C(NCc1ccccc1)C(=O)C(C[C@@H]1CCNC1=O)NC(=O)[C@@H]1C[C@@H](c2ccccc2)CN1C(=O)c1cc2ccccc2[nH]1 (stereo partly shown) [Compound 7],0.2 to 2 µM,< 0.1 µM,–,–,–,–,0.2 to 2 µM,–,> 10 µM,–,1 to 10 µM,0.1 to 1 µM,1 to 10 µM,> 10 µM,> 10 µM,–,–
"O=C1NCC[C@H]1C[C@H](NC(=O)[C@@H]1[C@H]2CCC[C@H]2CN1C(=O)c1cc2c(C(F)(F)F)cccc2[nH]1)C(=O)CO [Compound 63, (1S,3aR,6aS)—N-[(2S)-4-hydroxy-3-oxo-1-[(3S)-2-oxopyrrolidin-3-yl]butan-2-yl]-2-[4-(trifluoromethyl)-1H-indole-2-carbonyl]-hexahydro-1H-cyclopenta[c]pyrrole-1-carboxamide]",0.02 to 0.2 µM,≥ 10 µM,–,> 10 µM,–,–,–,–,> 10 µM,–,< 1 µM,0.1 to 1 µM,< 1 µM,> 10 µM,> 10 µM,–,–
COc1cccc2[nH]c(C(=O)N3C[C@@H]4CCC[C@@H]4[C@H]3C(=O)N[C@@H](C[C@H]3CC(C)(C)NC3=O)C(=O)CO)cc12 [Compound 70_2],0.2 to 2 µM,≥ 10 µM,–,–,–,–,–,–,> 50 µM,> 50 µM,10 to 100 µM,1 to 10 µM,10 to 100 µM,> 10 µM,–,> 10 µM,–
"CSc1cccc2[nH]c(C(=O)N3C[C@@H]4CCC[C@@H]4[C@H]3C(=O)N[C@@H](C[C@@H]3CCNC3=O)C(=O)CO)cc12 [Compound 154, (1S,3aR,6aS)—N—((S)-4-hydroxy-3-oxo-1-((S)-2-oxopyrrolidin-3-yl)butan-2-yl)-2-(4-(methylthio)-1H-indole-2-carbonyl)octahydrocyclopenta[c]pyrrole-1-carboxamide]",< 0.02 µM,≥ 10 µM,–,–,–,–,2 to 20 µM,–,> 50 µM,> 50 µM,< 1 µM,0.1 to 1 µM,1 to 10 µM,> 10 µM,–,–,–
"COc1cccc2[nH]c(C(=O)N3C[C@@H]4CCC[C@@H]4[C@H]3C(=O)N[C@@H](C[C@@H]3CCNC3=O)C(=O)CO)cc12 [Compound 27, (1S,3aR,6aS)—N-[(2S)-4-hydroxy-3-oxo-1-[(3S)-2-oxopyrrolidin-3-yl]butan-2-yl]-2-(4-methoxy-1H-indole-2-carbonyl)-hexahydro-1H-cyclopenta[c]pyrrole-1-carboxamide]",< 0.02 µM,≥ 10 µM,–,–,–,–,2 to 20 µM,–,> 100 µM,> 100 µM,1 to 10 µM,0.1 to 1 µM,1 to 10 µM,> 10 µM,–,–,–
"CC(=O)c1c[nH]c(C(=O)N2C[C@@H]3CCC[C@@H]3[C@H]2C(=O)N[C@@H](C[C@@H]2CCNC2=O)C(=O)CO)c1 [Compound 86, (1S,3aR,6aS)-2-(4-acetyl-1H-pyrrole-2-carbonyl)-N-[(2S)-4-hydroxy-3-oxo-1-[(3S)-2-oxopyrrolidin-3-yl]butan-2-yl]-hexahydro-1H-cyclopenta[c]pyrrole-1-carboxamide]",0.02 to 0.2 µM,≥ 10 µM,–,–,–,–,2 to 20 µM,–,> 50 µM,> 50 µM,10 to 100 µM,1 to 10 µM,10 to 100 µM,> 10 µM,–,–,–
"COc1cc(C(F)(F)F)cc2[nH]c(C(=O)N3C[C@@H]4CCC[C@@H]4[C@H]3C(=O)N[C@@H](C[C@@H]3CCNC3=O)C(=O)CO)cc12 [Compound 163, (1S,3aR,6aS)—N—((S)-4-hydroxy-3-oxo-1-((S)-2-oxopyrrolidin-3-yl)butan-2-yl)-2-(4-methoxy-6-(trifluoromethyl)-1H-indole-2-carbonyl)octahydrocyclopenta[c]pyrrole-1-carboxamide]",< 0.02 µM,≥ 10 µM,–,–,–,–,2 to 20 µM,–,> 50 µM,> 50 µM,1 to 10 µM,< 0.1 µM,1 to 10 µM,> 10 µM,–,–,–
"O=C(NCc1ccccc1)C(=O)C(C[C@@H]1CCNC1=O)NC(=O)[C@@H]1C[C@@H](C(F)(F)F)CN1C(=O)c1cc2ccccc2[nH]1 (stereo partly drawn) [Compound 19, N-benzyl-3-[[(2S,4R)-1-(1H-indole-2-carbonyl)-4-(trifluoromethyl)pyrrolidin-2-yl]formamido]-2-oxo-4-[(3S)-2-oxopyrrolidin-3-yl]butanamide]",0.2 to 2 µM,0.1 to 1 µM,–,–,–,–,2 to 20 µM,–,> 10 µM,> 100 µM,1 to 10 µM,0.1 to 1 µM,1 to 10 µM,> 10 µM,–,–,–
COc1ccc2[nH]c(C(=O)N3CCC4(CC4)C[C@H]3C(=O)N[C@@H](C[C@@H]3CCNC3=O)C(=O)C(=O)NC3CC3)cc2c1 [Compound 171],0.02 to 0.2 µM,≥ 10 µM,–,–,–,–,–,–,> 10 µM,> 50 µM,1 to 10 µM,1 to 10 µM,1 to 10 µM,> 10 µM,–,–,2 to 20 µM
C[C@@H]1C[C@@H](C(=O)N[C@@H](C[C@@H]2CCNC2=O)C(=O)C(=O)NCc2ccccc2)N(C(=O)c2cc3ccccc3[nH]2)C1 [Compound 25],2 to 20 µM,0.1 to 1 µM,–,–,–,–,2 to 20 µM,–,> 100 µM,> 100 µM,10 to 100 µM,1 to 10 µM,10 to 100 µM,> 10 µM,–,–,–
